Usually viability stands for a read-out of living cells in per cent, often relative to untreated cells.

The nature of the data set: in vitro. Conditions: human, hela cells, % viability.

Turning to `O=c1c2scc(-c3cccc(F)c3)c2ncn1Cc1ccc(F)cc1` [CBK287810], the viability at 28.5 h, 10 µM turned out to be 100%.
Turning to `Cn1nc2n(C)c(=O)c3ccc(C(=O)NC4CCCC4)cc3n2c1=O` [CBK287811], the viability at 28.5 h, 10 µM worked out at 113%.
With `O=c1cc(Cn2ccnc2)c2cc3c(cc2o1)CCC3` [CBK287813], the viability at 28.5 h, 10 µM is 88.8%.
As to `COc1cc2c(cc1OC)CN(C(=O)CSc1nnc3ccccn13)CC2` [CBK287814], the viability at 28.5 h, 10 µM is 94.8%.
As to `Cc1cccc2c1ncn1c(=O)n(CC(=O)Nc3cccc(Cl)c3)nc21` [CBK287815], the viability at 28.5 h, 10 µM is 81.8%.
Regarding `COc1cccc(Nc2c(C(=O)N3CCCCC3)cnc3nc(C)ccc23)c1` [CBK287817], the viability at 28.5 h, 10 µM was 96%.
With `O=C(Cn1c(=O)[nH]c2c(oc3ccccc32)c1=O)Nc1ccccc1` [CBK287818], the viability at 28.5 h, 10 µM turned out to be 104%.
`Cc1cc(C)c(NC(=O)CSc2ncccc2-c2nc(C)no2)c(C)c1` [CBK287821]: the viability at 28.5 h, 10 µM stood at 86.7%.
For `O=C(Cn1cnc(-c2noc(-c3cccnc3)n2)c1)Nc1ccc(Cl)cc1` [CBK287822], the viability at 28.5 h, 10 µM came to 96.2%.
The same measure, in the same setting: as for `O=C(NCc1ccco1)c1ccc2c(=O)n(-c3ccccc3)c(=O)[nH]c2c1` [CBK287823], the figure is 83.7%; as for `COc1ccc(OC)c(-n2c(=O)[nH]c3ccccc3c2=O)c1` [CBK287825], 110%; as for `COc1ccc2nc(-c3cccc(NC(=O)c4ccc(F)cc4)c3)cn2n1` [CBK287826], 104%.
For `COc1ccc2nc(-c3ccc(F)c(NC(=O)c4ccccc4)c3)cn2n1` [CBK287827], the viability at 28.5 h, 10 µM came to 110%.
Take `CC(=O)Nc1cccc(NC(=O)CSc2ncnc3c2nnn3C)c1` [CBK287829]: the viability at 28.5 h, 10 µM stood at 91.9%.
With `Cn1nnc2c(N3CCN(C(=O)c4ccccc4)CC3)ncnc21` [CBK287830], the viability at 28.5 h, 10 µM was 90.6%.
Still for that read-out and setting: as for `COc1ccc(C(=O)Nc2noc3nc(C)ccc23)cc1OC` [CBK287832], the figure is 89.7%.
In the case of `Cn1nccc1C(=O)Nc1nc(-c2ccccc2)cs1` [CBK287833], the viability at 28.5 h, 10 µM is 83.8%.
Take `CS(=O)(=O)N1CCCC(C(=O)Nc2nccs2)C1` (stereo not shown) [CBK287834]: the viability at 28.5 h, 10 µM came to 100%.
As to `Cc1cc(=O)n(CC(=O)Nc2ccc3c(c2)OCO3)cn1` [CBK287835], the viability at 28.5 h, 10 µM came out at 109%.
`COc1ccc(C(=O)Nc2cc(C)nn2-c2nc3ccccc3s2)cc1` [CBK287841]: the viability at 28.5 h, 10 µM is 89.8%.
Regarding `O=C(Cn1cnc2ccccc2c1=O)NCCc1ccsc1` [CBK287844], the viability at 28.5 h, 10 µM is 92.6%.
Turning to `CCn1nc(-c2ccc(Cl)cc2)c2c(=O)n(C)c(=O)[nH]c21` [CBK287845], the viability at 28.5 h, 10 µM was determined as 108%.
For `COc1ccc(C2CC(c3ccc(Cl)cc3)Nc3ncnn32)c(OC)c1` (stereo not shown) [CBK287848], the viability at 28.5 h, 10 µM was found to be 98.7%.
`CCCNC(=O)c1sc(Nc2ccc(Cl)cn2)nc1C` [CBK287850]: the viability at 28.5 h, 10 µM was determined as 98.4%.
In the case of `Cn1c(=O)[nH]c2c(nc(-c3ccccc3)n2C)c1=O` [CBK287855], the viability at 28.5 h, 10 µM was 78.2%.
For `Cc1ccc(C(=O)Nc2nnn(C)n2)c(Cl)c1` [CBK287856], the viability at 28.5 h, 10 µM was found to be 97.4%.
For `c1ccc(-c2nc3cnccn3c2Nc2ccc3c(c2)OCCO3)cc1` [CBK287857], the viability at 28.5 h, 10 µM was 94.4%.
`O=c1c2c(-c3ccccc3)ccnc2[nH]n1-c1ccccc1` [CBK287858]: the viability at 28.5 h, 10 µM worked out at 97%.
`O=C1CC(c2ccco2)Cc2c1cnn2-c1ccccc1` (stereo not shown) [CBK287860]: the viability at 28.5 h, 10 µM is 95.8%.
`CC(=O)c1c(O)n(C2CCCCC2)c(=O)[nH]c1=O` [CBK287861]: the viability at 28.5 h, 10 µM (bulk resorufin, single well) was 91.9%.
Consider `Cc1cc(C)nc(NC(=N)NC2Cc3ccccc3C2)n1` [CBK287863], for which the viability at 28.5 h, 10 µM worked out at 43.4%.
Regarding `CC(C)Cn1cnc2c(c1=N)C(c1ccccc1)c1ccc(O)cc1O2` (stereo not shown) [CBK287864], the viability at 28.5 h, 10 µM stood at 101%.
Take `c1cc2c(cc1-c1nn3cnnc3s1)OCCO2` [CBK287866]: the viability at 28.5 h, 10 µM came out at 88.1%.
In the case of `O=C(O)c1ccc(-c2n[nH]c(=O)c3c2CCCC3)cc1` [CBK287868], the viability at 28.5 h, 10 µM is 93.6%.
Take `c1ccc(-c2cc3nccc(-c4ccccc4)n3n2)cc1` [CBK287871]: the viability at 28.5 h, 10 µM was 93.7%.
For the molecule `Cc1nnc(Nc2ccc(F)cc2)c2ccccc12` [CBK287873], the viability at 28.5 h, 10 µM stood at 93.9%.
Regarding `COc1ccc(-c2noc(-c3cnccn3)n2)c(OC)c1` [CBK287878], the viability at 28.5 h, 10 µM amounted to 83.6%.
For `Cc1nn2c(N)ncnc2c1-c1ccc(Cl)cc1` [CBK287880], the viability at 28.5 h, 10 µM came to 68.8%.
In the case of `Nc1nc(-c2ccc(F)cc2)c2c(n1)-c1ccccc1C2=O` [CBK287881], the viability at 28.5 h, 10 µM turned out to be 114%.
As to `O=C(Nc1cccc2ncccc12)c1ccnc(N2CCOCC2)c1` [CBK287882], the viability at 28.5 h, 10 µM was found to be 102%.
Take `Fc1ccccc1CSc1nc2ccc[nH]c-2n1` [CBK287883]: the viability at 28.5 h, 10 µM is 91.2%.
As to `CC1CC(=O)c2cnc(Nc3ccccc3)nc2C1` (stereo not shown) [CBK287884], the viability at 28.5 h, 10 µM came out at 92.4%.
As to `Cc1nn(-c2ncccn2)c2c1C(C(=O)c1ccccc1)CC(=O)N2` (stereo not shown) [CBK287890], the viability at 28.5 h, 10 µM worked out at 93.2%.
On to `Cc1c(C)c2c(O)n(-c3ccccc3)nc2[nH]c1=O` [CBK287891], for which the viability at 28.5 h, 10 µM worked out at 89.3%.
Still for that read-out and setting: as for `O=C1Nc2ccccc2C1Cc1cccc(OC(F)F)c1` (stereo not shown) [CBK287892], the figure is 95%; as for `Cc1nn(-c2ccccc2)c2c1C(c1cnn(C)c1)SCC(=O)N2` (stereo not shown) [CBK287896], 114%; as for `O=c1cnnc(Nc2cccc(Cl)c2Cl)[nH]1` [CBK287897], 93%.
For the molecule `Cc1nc(=O)c(-c2ccccc2)c(C)n1CCc1c[nH]cn1` [CBK287900], the viability at 28.5 h, 10 µM was determined as 89.3%.
Same read-out and setting: as for `O=C(C1CCCN(c2ccc3nncn3n2)C1)N1CCOCC1` (stereo not shown) [CBK287901], the figure is 104%.
On to `Cn1c(=O)c2[nH]c(-c3ccncc3)nc2n(C)c1=O` [CBK287902], for which the viability at 28.5 h, 10 µM is 92.5%.
As to `O=C(c1ccccc1)N1CCc2[nH]nc(-c3ccccc3)c2C1` [CBK287904], the viability at 28.5 h, 10 µM came to 92.5%.
Turning to `COc1ccc(C2C=C(C)Nc3nc(N)nn32)cc1` (stereo not shown) [CBK287906], the viability at 28.5 h, 10 µM was found to be 91.8%.
On the same count and under the same terms, as for `Fc1ccc(CCNc2ccc3nncn3n2)cc1` [CBK287909], the figure is 88.2%.
Regarding `Cn1ccc2ccc(C(=O)Nc3nccs3)cc21` [CBK287910], the viability at 28.5 h, 10 µM was determined as 106%.
As to `O=C1CC(c2ccccc2)c2c(n3ncnc3[nH]c2=O)N1` (stereo not shown) [CBK287912], the viability at 28.5 h, 10 µM amounted to 89.4%.
As to `O=C(NCc1ccccc1)C1CCCN(c2ncnc3[nH]cnc23)C1` (stereo not shown) [CBK287916], the viability at 28.5 h, 10 µM stood at 91.4%.
Still for that read-out and setting: as for `Cc1cc(C)c2c(n1)oc1c(NC(C)C)ncnc12` [CBK287917], the figure is 108%; as for `O=C(O)CCC(=O)N1CCC(c2nnc3ccccn23)CC1` [CBK287920], 104%; as for `Oc1cnnc(Nc2ccc(Nc3ccccc3)cc2)n1` [CBK287921], 101%.
The same measure, in the same setting: as for `Cc1cc(Cl)ccc1Nc1nnc(C)c(=O)[nH]1` [CBK287922], the figure is 110%; as for `O=C1CC(c2ccccc2)c2c(n3ccsc3nc2=O)N1` (stereo not shown) [CBK287923], 98.7%.
For `CC(C)CC1CC(=O)Nc2c1c(=O)[nH]n2C(C)C` (stereo not shown) [CBK287924], the viability at 28.5 h, 10 µM was determined as 105%.
In the case of `Cc1nn(-c2ccccc2)c(C)c1C1CC(=O)Nc2c1cnn2C(C)C` (stereo not shown) [CBK287925], the viability at 28.5 h, 10 µM was found to be 104%.
On to `CC(C)n1ncc2c1NC(=O)CC2c1ccc2c(c1)n(C)c(=O)n2C` (stereo not shown) [CBK287926], for which the viability at 28.5 h, 10 µM was 108%.
The same measure, in the same setting: as for `O=C1CC(c2cccnc2)c2sc(N3CCOCC3)nc2N1` (stereo not shown) [CBK287927], the figure is 105%; as for `Cc1ccc(-c2[nH]ncc2C(=O)c2ccccc2C)c(O)c1` [CBK287929], 102%.
As for `NC(=O)c1cccnc1-c1nc2ccccc2s1` [CBK287930], the viability at 28.5 h, 10 µM came to 80%.
On to `Cc1cc(NCc2ccccc2)nc2[nH]nc(N)c12` [CBK287931], for which the viability at 28.5 h, 10 µM came out at 87.7%.
As to `CCc1cc(-c2n[nH]cc2-c2nc(C)cs2)c(O)cc1OC` [CBK287934], the viability at 28.5 h, 10 µM came to 103%.
For the molecule `O=C1CSC(c2ccc(F)cc2Cl)c2c[nH]nc2N1` (stereo not shown) [CBK287935], the viability at 28.5 h, 10 µM is 91.4%.
On to `CC(=O)Nc1nc(NC(C)=O)n(-c2ccccc2)n1` [CBK287938], for which the viability at 28.5 h, 10 µM was determined as 86%.
Turning to `Cc1nc2c(c(N3CCOCC3)n1)OCC(=O)N2` [CBK287939], the viability at 28.5 h, 10 µM was 94.5%.
The same measure, in the same setting: as for `Cn1ncc2c1NC(=O)CC2c1c[nH]nc1-c1ccccc1` (stereo not shown) [CBK287941], the figure is 99.5%; as for `N#Cc1cnn2c(O)cc(Cc3ccccc3)nc12` [CBK287942], 110%; as for `Cc1cc(-c2nnc3n2N=C(c2ccccc2)CS3)n[nH]1` [CBK287944], 98.3%.
Still for that read-out and setting: as for `Nc1nc2n(n1)C(c1ccccc1)C1=C(CCCC1)N2` (stereo not shown) [CBK287949], the figure is 107%; as for `Cn1c2ccccc2c2ncn(CCCO)c(=O)c21` [CBK287951], 56.9%.
With `CCn1cnc2sc(-c3ccccc3)cc2c1=O` [CBK287952], the viability at 28.5 h, 10 µM stood at 65.7%.
Regarding `CCN1CCN(c2ccc(N3C(=O)N[C@@H](C(C)C)C3=O)cc2)CC1` [CBK287953], the viability at 28.5 h, 10 µM came out at 87.5%.
Consider `CSCC[C@@H]1NC(=O)N(c2ccc(CN3CCOCC3)cc2)C1=O` [CBK287954], for which the viability at 28.5 h, 10 µM worked out at 83.2%.
`CN(CCC#N)C(=O)c1cc2cc(Cl)ccc2[nH]1` [CBK287956]: the viability at 28.5 h, 10 µM was found to be 98%.
For `Cc1cccc(-c2n[nH]/c(=N/C(=O)c3ccccc3F)s2)c1` [CBK287957], the viability at 28.5 h, 10 µM is 84.5%.
As to `O=c1nc2n(Cc3ccccc3)c3ccccc3cc-2c(=O)[nH]1` [CBK287958], the viability at 28.5 h, 10 µM was determined as 79.8%.
For `COc1ccc(O)c(-c2c(-c3ccc(C)cc3)n[nH]c2C)c1` [CBK287961], the viability at 28.5 h, 10 µM was 93.1%.
For the molecule `Cc1cccc(CSc2nc3ncccc3[nH]2)c1` [CBK287963], the viability at 28.5 h, 10 µM amounted to 96.9%.

(Values after publication PMC12040169 (PLOS Biology, 2025).)
